# Patent US10800757B2, “Inhibitors of TRPC6” (Boehringer Ingelheim International GmbH, priority 2017, dated 2020)
# Molecular target: TRPC6 (Homo sapiens (Human), UniProt Q9Y210)
# Assay: High throughput screening assay: fluorescent calcium (Fluo4/AM) assay of TRPC6 channel activation by GSK1702934A in HEK293/TREx cells
# Type: cell-based
# Conditions: HEK293/TREx cells stably transfected with TRPC6; agonist GSK1702934A; 7 concentrations 20 μM to 0.027 μM, triplicate
# In short: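 HEK293/TREx cells stably carrying a TRPC6 construct were induced with 1 μg/ml tetracycline, plated at ~35,000 cells/well in 384-well CellBind plates, and loaded with 0.5 μM Fluo4/AM in Ringer's with 1% Pluronic F-127. Compounds were added 2 minutes before 125 nM GSK1702934A in high-Ca2+ Ringer. Fluorescence was read on a Hamamatsu FDSS 6000, normalized to controls, and fitted for IC50 from triplicates.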
# Chain of TRPC6 (Q9Y210 whole entry, species assumed): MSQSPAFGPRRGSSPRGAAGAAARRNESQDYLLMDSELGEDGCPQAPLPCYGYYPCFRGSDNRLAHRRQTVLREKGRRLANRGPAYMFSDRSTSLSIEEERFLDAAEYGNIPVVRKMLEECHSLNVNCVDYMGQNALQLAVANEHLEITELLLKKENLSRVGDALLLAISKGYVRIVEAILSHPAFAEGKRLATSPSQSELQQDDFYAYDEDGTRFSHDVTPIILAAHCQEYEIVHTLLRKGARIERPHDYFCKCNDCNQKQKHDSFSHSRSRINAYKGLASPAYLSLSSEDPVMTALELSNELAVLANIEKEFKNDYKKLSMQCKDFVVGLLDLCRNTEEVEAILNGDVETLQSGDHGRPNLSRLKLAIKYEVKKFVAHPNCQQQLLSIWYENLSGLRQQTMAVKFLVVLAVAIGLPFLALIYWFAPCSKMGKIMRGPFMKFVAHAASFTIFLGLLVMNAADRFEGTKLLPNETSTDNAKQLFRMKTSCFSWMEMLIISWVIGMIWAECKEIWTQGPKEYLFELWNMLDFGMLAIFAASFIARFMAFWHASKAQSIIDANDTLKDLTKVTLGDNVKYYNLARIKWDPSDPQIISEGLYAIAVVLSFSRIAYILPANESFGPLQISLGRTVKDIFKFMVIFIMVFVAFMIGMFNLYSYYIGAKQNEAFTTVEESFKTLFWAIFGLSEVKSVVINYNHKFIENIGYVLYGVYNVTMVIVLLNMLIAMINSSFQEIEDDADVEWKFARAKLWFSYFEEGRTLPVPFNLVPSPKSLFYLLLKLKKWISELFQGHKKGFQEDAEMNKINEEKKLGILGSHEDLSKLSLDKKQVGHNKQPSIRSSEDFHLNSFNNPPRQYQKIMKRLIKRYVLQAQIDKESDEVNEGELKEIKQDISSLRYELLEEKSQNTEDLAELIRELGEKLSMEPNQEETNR
row,SMILES,IC50
1,"COc1cc(C(=O)N2CCC(c3ccc(N)nc3)CC2)ncc1Oc1ccccc1 [Compound 3, (6-Amino-3′,4′,5′,6′-tetrahydro-2′H-[3,4′]bipyridinyl-1′-yl)-(4-methoxy-5-phenoxy-pyridin-2-yl)-methanone]",< 27 nM
2,"COc1cc(C(=O)N2C3CCC2CN(c2cnc(N)cc2OC)C3)ncc1Oc1ccc(F)cc1 [Compound 38, [3-(6-Amino-4-methoxy-pyridin-3-yl)-3,8-diaza-bicyclo[3.2.1]oct-8-yl]-[5-(4-fluoro-phenoxy)-4-methoxy-pyridin-2-yl]-methanone]",170 nM
3,"COc1cc(C(=O)N2CCC(c3ccc(N)nn3)CC2)ncc1OCc1ccc(F)cc1 [Compound 41, [4-(6-Amino-pyridazin-3-yl)-piperidin-1-yl]-[5-(4-fluoro-benzyloxy)-4-methoxy-pyridin-2-yl]-methanone]",180 nM
4,"COc1cc(C(=O)N2CCC(c3ccc(N)nn3)CC2)ncc1Oc1ccc(OC(C)C)cc1 [Compound 6, [4-(6-Amino-pyridazin-3-yl)-piperidin-1-yl]-[5-(4-isopropoxy-phenoxy)-4-methoxy-pyridin-2-yl]-methanone]",27 nM
5,"COc1ccc(Oc2cnc(C(=O)N3CCC(c4cc(OC)c(N)nn4)CC3)cc2OC)cc1 [Compound 60, [4-(6-Amino-5-methoxy-pyridazin-3-yl)-piperidin-1-yl]-[4-methoxy-5-(4-methoxy-phenoxy)-pyridin-2-yl]-methanone]",440 nM
6,"COc1cc(C(=O)N2CCN(c3cnc(N)cc3OC)C[C@H]2CO)ncc1Oc1ccccc1 [Compound 71, [(S)-4-(6-Amino-4-methoxy-pyridin-3-yl)-2-hydroxymethyl-piperazin-1-yl]-(4-methoxy-5-phenoxy-pyridin-2-yl)-methanone]",850 nM
7,"COc1cc(C(=O)N2CCC(c3ccc(N)nn3)CC2)ncc1OCc1ccccc1F [Compound 57, [4-(6-Amino-pyridazin-3-yl)-piperidin-1-yl]-[5-(2-fluoro-benzyloxy)-4-methoxy-pyridin-2-yl]-methanone]",300 nM
8,"COc1ccc(Oc2cnc(C(=O)N3CCC(c4nnc(N)cc4OC)CC3)cc2OC)cc1 [Compound 66, [4-(6-Amino-4-methoxy-pyridazin-3-yl)-piperidin-1-yl]-[4-methoxy-5-(4-methoxy-phenoxy)-pyridin-2-yl]-methanone]",840 nM
9,"COc1ccc(Oc2cnc(C(=O)N3CCN(c4ccc(N)nc4)C[C@@H]3CO)cc2OC)cc1 [Compound 82, [(R)-4-(6-Amino-pyridin-3-yl)-2-hydroxymethyl-piperazin-1-yl]-[4-methoxy-5-(4-methoxy-phenoxy)-pyridin-2-yl]-methanone]",180 nM
10,"COC[C@H]1CN(c2cnc(N)cc2OC)CCN1C(=O)c1cc(OC)c(Oc2ccc(F)cc2)cn1 [Compound 55, [(R)-4-(6-Amino-4-methoxy-pyridin-3-yl)-2-methoxymethyl-piperazin-1-yl]-[5-(4-fluoro-phenoxy)-4-methoxy-pyridin-2-yl]-methanone]",220 nM

# Continued, values first:
row,IC50,SMILES
1,830 nM,"CCOc1cnc(C(=O)N2CCC(c3cnc(N)cc3OC)CC2)cc1OC [Compound 65, (6-Amino-4-methoxy-3′,4′,5′,6′-tetrahydro-2′H-[3,4′]bipyridinyl-1′-yl)-(5-ethoxy-4-methoxy-pyridin-2-yl)-methanone]"
2,< 27 nM,"COc1cc(C(=O)N2CCC(c3cnc(N)cc3OC)CC2)ncc1Oc1ccc(F)cc1 [Compound 4, (6-Amino-4-methoxy-3′,4′,5′,6′-tetrahydro-2′H-[3,4′]bipyridinyl-1′-yl)-[5-(4-fluoro-phenoxy)-4-methoxy-pyridin-2-yl]methanone]"
3,54 nM,"COc1cc(C(=O)N2CCC(c3cnc(N)cc3OC)CC2)ncc1Oc1ccccc1 [Compound 23, (6-Amino-4-methoxy-3′,4′,5′,6′-tetrahydro-2′H-[3,4′]bipyridinyl-1′-yl)-(4-methoxy-5-phenoxy-pyridin-2-yl)-methanone]"
4,220 nM,"COc1cc(C(=O)N2CCC(c3nnc(N)cc3OC)CC2)ncc1Oc1ccccc1 [Compound 47, 5-Methoxy-6-[1-(4-methoxy-5-phenoxypyridine-2-carbonyl)piperidin-4-yl]pyridazin-3-amine]"
5,130 nM,"COc1cc(C(=O)N2CCC(c3cnc(N)cc3OC)CC2)ncc1OCc1ccc(F)cc1 [Compound 32, (6-Amino-4-methoxy-3′,4′,5′,6′-tetrahydro-2′H-[3,4′]bipyridinyl-1′-yl)-[5-(4-fluoro-benzyloxy)-4-methoxy-pyridin-2-yl]-methanone]"
6,71 nM,"COc1cc(C(=O)N2CCC(c3cnc(N)cc3OC)CC2)ncc1OCC1(C)CC1 [Compound 26, (6-Amino-4-methoxy-3′,4′,5′,6′-tetrahydro-2′H-[3,4′]bipyridinyl-1′-yl)-[4-methoxy-5-(1-methyl-cyclopropylmethoxy)-pyridin-2-yl]-methanone]"
7,100 nM,"COc1ccc(Oc2cnc(C(=O)N3CCC(c4cnc(N)cc4OC)CC3)cc2OC)cc1 [Compound 28, (6-Amino-4-methoxy-3′,4′,5′,6′-tetrahydro-2′H-[3,4′]bipyridinyl-1′-yl)-[4-methoxy-5-(4-methoxy-phenoxy)-pyridin-2-yl]-methanone]"
8,160 nM,"COc1cc(C(=O)N2CCC(c3cnc(N)cc3OC)CC2)ncc1OCC1CC1 [Compound 37, 5-{1-[5-(Cyclopropylmethoxy)-4-methoxypyridine-2-carbonyl]piperidin-4-yl}-4-methoxypyridin-2-amine]"
